Experimental data reported in US20120121540A1 (priority 2007, published 2012).

Assay: HCV replicon assay (luciferase reporter, ET cell line)
Format: cell-based
Details: Hepatitis C virus, HCV replicon luciferase activity in ET cells
How it was run: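 ET cells carry a stable luciferase-ubiquitin-neo/NS3-5B subgenomic HCV replicon with adaptive mutations. Compounds (0.1 nM to […], 0.5% DMSO) were added 24 h after plating, and luciferase was read 48-72 h later. EC50 came from 10-point 2-fold dilutions fitted to a Hill equation; TC50 was measured in parallel by WST-1.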

SMILES | inhibition at 10 µM
N#Cc1cccc(C2CCN(C(=O)c3nc4c(C(F)(F)F)cc(-c5ccoc5)cn4c3Cl)C2)c1 (stereo not drawn) [Compound 450, 3-(1-(3-Chloro-6-furan-3-yl-8-trifluoromethyl-imidazo[1,2-a]pyridine-2-carbonyl)-pyrrolidin-3-yl)-benzonitrile] | 82.5%
COc1cccc(C2CCN(C(=O)c3nc4c(C(F)(F)F)cc(-c5ccoc5)cn4c3Cl)C2)c1 (stereo not drawn) [Compound 451, (3-Chloro-6-furan-3-yl-8-trifluoromethyl-imidaz [1,2-a]pyridin-2-yl)-[3-(3-methoxy-phenyl)-pyrrolidin-1-yl]-methanone] | 73.5%
COC(=O)c1cccc(C2CCN(C(=O)c3nc4c(C(F)(F)F)cc(-c5ccoc5)cn4c3Cl)C2)c1 (stereo not drawn) [Compound 452, 3-(1-(3-Chloro-6-furan-3-yl-8-trifluoromethyl-imidazo[1,2-a]pyridine-2-carbonyl)-pyrrolidin-3-yl)-benzoic acid methyl ester] | 87.6%
O=C(c1nc2c(C(F)(F)F)cc(-c3ccoc3)cn2c1Cl)N1CCC(c2cccnc2)C1 (stereo not drawn) [Compound 453, (3-Chloro-6-furan-3-yl-8-trifluoromethyl-imidazo[1,2-a]pyridin-2-yl)-(3-pyridin-3-yl-pyrrolidin-1-yl)-methanone] | 97.6%
O=C(c1nc2c(C(F)(F)F)cc(-c3ccoc3)cn2c1Cl)N1CCC(c2ccncc2)C1 (stereo not drawn) [Compound 454, (3-Chloro-6-furan-3-yl-8-trifluoromethyl-imidazo[1,2-a]pyridin-2-yl)-(3-pyridin-4-yl-pyrrolidin-1-yl)-methanone] | 96.1%
O=C(c1nc2c(C(F)(F)F)cc(-c3ccoc3)cn2c1Cl)N1CCC(c2cccc(Cl)c2)C1 (stereo not drawn) [Compound 460, (3-Chloro-6-furan-3-yl-8-trifluoromethyl-imidazo[1,2-a]pyridin-2-yl)-[3-(3-chloro-phenyl)-pyrrolidin-1-yl]-methanone] | 88%
O=C(c1nc2c(C(F)(F)F)cc(-c3cn[nH]c3)cn2c1Br)N1CCC(c2ccccc2)C1 (stereo not drawn) [Compound 461, (3-Bromo-6-(1H-pyrazol-4-yl)-8-trifluoromethyl-imidazo[1,2-a]pyridin-2-yl)-(3-phenyl-pyrrolidin-1-yl)-methanone] | 94.3%
Nc1cccc(C2CCN(C(=O)c3nc4c(C(F)(F)F)cc(-c5ccoc5)cn4c3Cl)C2)c1 (stereo not drawn) [Compound 462, [3-(3-Amino-phenyl)-pyrrolidin-1-yl]-(3-chloro-6-furan-3-yl-8-trifluoromethyl-imidaz [1,2-a]pyridin-2-yl)-methanone] | 86.5%
COc1ccccc1C1CCN(C(=O)c2nc3c(C(F)(F)F)cc(-c4ccoc4)cn3c2Cl)C1 (stereo not drawn) [Compound 463, (3-Chloro-6-furan-3-yl-8-trifluoromethyl-imidaz [1,2-a]pyridin-2-yl)-[3-(2-methoxy-phenyl)-pyrrolidin-1-yl]-methanone] | 80.6%
O=C(c1nc2c(C(F)(F)F)cc(-c3cn[nH]c3)cn2c1Cl)N1CCC(c2ccccc2)C1 (stereo not drawn) [Compound 464, [3-Chloro-6-(1H-pyrazol-4-yl)-8-trifluoromethyl-imidazo[1,2-a]pyridin-2-yl]-(3-phenyl-pyrrolidin-1-yl)-methanone] | 93.7%
O=C(c1nc2c(C(F)(F)F)cc(-c3cn[nH]c3)cn2c1Cl)N1CC[C@@H](c2ccccc2)C1 [Compound 465, [3-Chloro-6-(1H-pyrazol-4-yl)-8-trifluoromethyl-imidazo[1,2-a]pyridin-2-yl]-(3-(S)-phenyl-pyrrolidin-1-yl)-methanone] | 97.9%
O=C(c1nc2c(C(F)(F)F)cc(-c3cn[nH]c3)cn2c1Cl)N1CC[C@H](c2ccccc2)C1 [Compound 466, [3-Chloro-6-(1H-pyrazol-4-yl)-8-trifluoromethyl-imidazo[1,2-a]pyridin-2-yl]-(3-(R)-phenyl-pyrrolidin-1-yl)-methanone] | 90.4%
